{"source": "patent US10174002B2", "about": "“Pyridine derivatives as CFTR modulators” (NuBridge BioSciences, priority 2015, dated 2019)"}
{"target": "T1, ΔF508 mutant CFTR (Homo sapiens, UniProt P13569, DEL508-508)", "T1 construct": "expressed in transfected cells; host or cells: Fischer rat thyroid (FRT) cells, co-expressing the halide-sensitive YFP-H148Q/I152L", "T1 sequence (P13569 with tags, fused parts or gaps DEL508-508)": "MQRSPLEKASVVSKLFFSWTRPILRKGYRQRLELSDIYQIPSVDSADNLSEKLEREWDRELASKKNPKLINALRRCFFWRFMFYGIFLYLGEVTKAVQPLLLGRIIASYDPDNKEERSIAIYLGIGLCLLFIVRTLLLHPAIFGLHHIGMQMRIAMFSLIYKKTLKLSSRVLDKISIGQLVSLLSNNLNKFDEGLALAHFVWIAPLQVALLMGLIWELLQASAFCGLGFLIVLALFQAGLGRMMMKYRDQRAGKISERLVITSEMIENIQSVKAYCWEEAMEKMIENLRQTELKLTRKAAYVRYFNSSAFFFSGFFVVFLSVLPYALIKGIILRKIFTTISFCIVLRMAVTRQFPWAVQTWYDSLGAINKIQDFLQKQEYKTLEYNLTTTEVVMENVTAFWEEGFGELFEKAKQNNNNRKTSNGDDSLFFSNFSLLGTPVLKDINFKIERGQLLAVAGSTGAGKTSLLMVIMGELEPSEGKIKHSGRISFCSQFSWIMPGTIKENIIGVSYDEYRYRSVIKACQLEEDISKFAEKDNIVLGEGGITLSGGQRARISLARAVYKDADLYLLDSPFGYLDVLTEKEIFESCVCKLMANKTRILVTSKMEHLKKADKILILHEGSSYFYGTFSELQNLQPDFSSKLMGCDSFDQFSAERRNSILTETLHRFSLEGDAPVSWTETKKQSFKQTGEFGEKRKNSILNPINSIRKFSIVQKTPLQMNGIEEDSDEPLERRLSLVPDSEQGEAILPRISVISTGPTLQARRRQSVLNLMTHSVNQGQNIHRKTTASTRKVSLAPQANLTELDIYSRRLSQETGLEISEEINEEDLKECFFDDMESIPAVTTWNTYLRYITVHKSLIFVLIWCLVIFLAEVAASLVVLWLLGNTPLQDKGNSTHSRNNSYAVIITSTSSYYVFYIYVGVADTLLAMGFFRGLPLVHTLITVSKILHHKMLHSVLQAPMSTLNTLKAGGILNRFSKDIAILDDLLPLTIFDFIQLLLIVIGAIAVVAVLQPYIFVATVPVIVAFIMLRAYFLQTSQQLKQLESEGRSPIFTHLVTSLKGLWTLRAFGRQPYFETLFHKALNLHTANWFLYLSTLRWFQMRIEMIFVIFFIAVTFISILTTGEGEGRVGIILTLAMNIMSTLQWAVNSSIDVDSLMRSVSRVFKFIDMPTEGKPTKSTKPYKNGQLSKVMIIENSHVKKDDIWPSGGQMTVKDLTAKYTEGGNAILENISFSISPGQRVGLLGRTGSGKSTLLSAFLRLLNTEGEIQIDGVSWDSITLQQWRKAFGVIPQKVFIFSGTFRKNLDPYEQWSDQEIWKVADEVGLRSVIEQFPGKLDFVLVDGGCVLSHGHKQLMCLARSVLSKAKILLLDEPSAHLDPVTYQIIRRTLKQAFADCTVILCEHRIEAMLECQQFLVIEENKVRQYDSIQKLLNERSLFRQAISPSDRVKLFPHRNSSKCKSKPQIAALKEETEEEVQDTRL", "assay": "Fluorescence Assay of ΔF508 mutant CFTR activity (halide-sensitive YFP quenching by iodide influx in FRT cells)", "type": "cell-based", "design": "key: fold of mean activity with forskolin alone (I− quenching rate)", "details": "test compounds 20 μM with forskolin 20 μM, 20 min; FRT cells expressing ΔF508-CFTR and YFP-H148Q/I152L, incubated at 27° C. 20-24 h; rate of fluorescence quenching by I−, normalized to mean activity with forskolin alone", "from_the_text": "The ΔF508 mutant CFTR activities of the CFTR modulators are detected using the Fluorescence Assay developed by Pedemonte (Pedemonte N., et al., Antihypertensive 1,4-dihydropyridines as correctors of the cystic fibrosis transmembrane conductance regulator channel gating defect caused by cystic fibrosis mutations, Mol. Pharmacol., 2005, 68, 1736-1746).\nFischer rat thyroid (FRT) cells, stably transfected with ΔF508 were retransfected with the YFP-H148Q/I152L fluorescent protein. The cells were plated (100,000 cells/well) on black 96-well microplates with clear plastic bottom (Corning Life Sciences, Acton, Mass.).\nThe 96-well microplates containing FRT cells expressing F508-CFTR and the halide-sensitive YFP were incubated at 27° C. for 20 to 24 h to allow rescue of the mutant protein to the plasma membrane. After incubation, cells were washed with PBS (containing 137 mM NaCl, 2.7 mM KCl, 8.1 mM Na2HPO4, 1.5 mM KH2PO4, 1 mM CaCl2, and 0.5 mM MgCl2) and stimulated for 20 min with forskolin (20 μM) and test compounds (20 μM) in a final volume of 60 μl. Microplates were then transferred to a microplate reader for CFTR activity determination. Each assay consisted of a continuous 14-s fluorescence reading (5 points per second) with 2 s before and 12 s after injection of 165 μl of an iodide-containing solution (PBS with Cl^− replaced by I^−). Final iodide concentration in the wells was 100 mM. […] To determine I^− influx rate, the final 11 s of the data for each well were fitted with an exponential function to extrapolate initial slope. CFTR activity was determined by measuring the rate of fluorescence quenching induced by extracellular addition of I^−. Data are normalized to the mean activity measured in the presence of forskolin alone."}
{"smiles": "O=C(Nc1cnccc1OCC1CCOCC1)c1ccc(F)c(-c2c(F)cccc2F)n1", "note": "[Example 22, 6-(2,6-difluorophenyl)-5-fluoro-N-(4-((tetrahydro-2H-pyran-4-yl)methoxy)pyridin-3-yl)picolinamide]", "CFTR Activity": 0.05}
{"smiles": "Cl.Nc1cc(F)c(-c2c(F)cccc2F)nc1C(=O)Nc1cnccc1OCC1CNC1", "note": "[Example 32, 3-amino-N-(4-(azetidin-3-ylmethoxy)pyridin-3-yl)-6-(2,6-difluorophenyl)-5-fluoropicolinamide hydrochloride]", "CFTR Activity": 1.2}
{"smiles": "Cl.Nc1cc(F)c(-c2c(F)cccc2F)nc1C(=O)Nc1cnccc1OC1CCNC1", "note": "(stereo not shown) [Example 24, 3-amino-6-(2,6-difluorophenyl)-5-fluoro-N-(4-(pyrrolidin-3-yloxy)pyridin-3-yl)picolinamide hydrochloride]", "CFTR Activity": 2.1}
{"smiles": "Cl.O=C(Nc1cnccc1OC1CCCNCC1)c1ccc(C(F)(F)F)c(-c2c(F)cccc2F)n1", "note": "(stereo not shown) [Example 42, N-(4-(azepan-4-yloxy)pyridin-3-yl)-6-(2,6-difluorophenyl)-5-(trifluoromethyl)picolinamide hydrochloride]", "CFTR Activity": 2.7}
{"smiles": "Cl.Nc1cc(C(F)(F)F)c(-c2c(F)cccc2F)nc1C(=O)Nc1cnccc1OCC1CNC1", "note": "[Example 50, 3-amino-N-(4-(azetidin-3-ylmethoxy)pyridin-3-yl)-6-(2,6-difluorophenyl)-5-(trifluoromethyl)picolinamide hydrochloride]", "CFTR Activity": 2.7}
{"smiles": "O=C(Nc1cnccc1OCCCCO)c1ccc(F)c(-c2c(F)cccc2F)n1", "note": "[Example 19, 6-(2,6-difluorophenyl)-5-fluoro-N-(4-(4-hydroxybutoxy)pyridin-3-yl)picolinamide]", "CFTR Activity": 0.3}
{"smiles": "Cl.O=C(Nc1cnccc1OC1CCCNC1)c1ccc(F)c(-c2c(F)cccc2F)n1", "note": "(stereo not shown) [Example 5, 6-(2,6-difluorophenyl)-5-fluoro-N-(4-(piperidin-3-yloxy)pyridin-3-yl)picolinamide hydrochloride]", "CFTR Activity": 0.5}
